{"source": "patent US20140106440A1", "about": "“ENHANCED ENZYMATIC CO2 CAPTURE TECHNIQUES ACCORDING TO SOLUTION PKA, TEMPERATURE AND/OR ENZYME CHARACTER” (CO2 SOLUTIONS INC., priority 2011, published 2014)", "key": {"[1]": {"experiment": "Second-order kinetic rate constant of the reaction between alkanolamine and CO2 (no enzyme)", "type": "physicochemical"}, "[2]": {"conditions": "cited from earlier work"}, "[3]": {"conditions": "forward reaction with CO2; 2 kmol/m^3 MDEA solution at 298 K; cited from earlier work"}}, "note": "Where “and” joins values, the source holds several entries; their conditions need not be identical. Identical values can stand only once. Like-named read-outs stand apart in the source and are kept apart here."}
{"smiles": "CCN(CC)CCO", "note": "[DEMEA, diethylethanolamine]", "values": [{"measurement": "k2, second-order kinetic rate constant of the reaction between amine and CO2", "setting": "[1]", "result": "33.0 m^3 kmol^−1 s^−1 and 35.5 m^3 kmol^−1 s^−1 and 33.1 m^3 kmol^−1 s^−1"}]}
{"smiles": "CN(C)CCO", "note": "[DMMEA, dimethylethanolamine]", "values": [{"measurement": "pKa", "setting": "[2]; Table 3", "result": 9.2}, {"measurement": "pKa", "setting": "[2]; Table 4", "result": 9.2}, {"measurement": "pKa", "setting": "[2]; Table 14", "result": 9.22}, {"measurement": "k2, second-order kinetic rate constant of the reaction between amine and CO2", "setting": "[1]; amine concentration 1.0 kmol m^−3", "result": 19.5, "unit": "m^3 kmol^−1 s^−1"}, {"measurement": "k2, second-order kinetic rate constant of the reaction between amine and CO2", "setting": "[1]; amine concentration 2.0 kmol m^−3", "result": 18.8, "unit": "m^3 kmol^−1 s^−1"}]}
{"smiles": "O", "note": "[H2O, water]", "values": [{"measurement": "1st order rate constant", "setting": "[3]", "result": 0.026, "unit": "s⁻¹"}]}
{"smiles": "O", "note": "[OH^−, hydroxide]", "values": [{"measurement": "1st order rate constant", "setting": "[3]", "result": 23.8, "unit": "s⁻¹"}, {"measurement": "2nd order rate constant", "setting": "[3]", "result": 8.35, "unit": "m^3mol^−1s^−1"}]}
{"smiles": "CC(O)CN(CC(C)O)CC(C)O", "note": "(stereo not shown) [TIPA, tri-isopropanolamine]", "values": [{"measurement": "k2, second-order kinetic rate constant of the reaction between amine and CO2", "setting": "[1]", "result": "1.02 m^3 kmol^−1 s^−1 and 0.79 m^3 kmol^−1 s^−1"}]}
